Experimental data reported in ChEMBL document CHEMBL1144037, “Structural requirements for the stability of novel cephalosporins to AmpC beta-lactamase based on 3D-structure” (2008).
In brackets after ≈: the same amount, converted by molar mass.

How the values were obtained:
Type in all cases: functional
[1] = test system: Pseudomonas aeruginosa; assay: Antibacterial activity against Pseudomonas aeruginosa PAO1 ampD-deffective mutant after 18 hrs by agar dilution method; conditions: PAO1, 18 h
[2] = test system: Pseudomonas aeruginosa; assay: Antibacterial activity against Pseudomonas aeruginosa PAO1 after 18 hrs by agar dilution method; conditions: PAO1, 18 h
[3] = test system: Pseudomonas aeruginosa; assay: Antibacterial activity against Pseudomonas aeruginosa FP1380 after 18 hrs by agar dilution method; conditions: FP1380, 18 h

## CCCc1c[n+](CC2=C(C(=O)[O-])N3C(=O)[C@@H](NC(=O)/C(=N\OC(C)(C)C(=O)O)c4nsc(N)n4)[C@H]3SC2)n(C)c1N
[1]
  MIC: 1 µg/mL (≈ 1.65 µM)
[2]
  MIC: 2 µg/mL (≈ 3.29 µM)

## Cn1c(N)c(CN)c[n+]1CC1=C(C(=O)[O-])N2C(=O)[C@@H](NC(=O)/C(=N\OC(C)(C)C(=O)O)c3nsc(N)n3)[C@H]2SC1
[1]
  MIC: 0.5 µg/mL (≈ 0.841 µM)
[2]
  MIC: 4 µg/mL (≈ 6.73 µM)

## Cn1c(N)c(N)c[n+]1CC1=C(C(=O)[O-])N2C(=O)[C@@H](NC(=O)/C(=N\OC(C)(C)C(=O)O)c3nsc(N)n3)[C@H]2SC1
[1]
  MIC: 0.5 µg/mL (≈ 0.861 µM)
[2]
  MIC: 4 µg/mL (≈ 6.89 µM)

## Cn1c(CCN)cc[n+]1CC1=C(C(=O)[O-])N2C(=O)[C@@H](NC(=O)/C(=N\OC(C)(C)C(=O)O)c3nsc(N)n3)[C@H]2SC1.O=S(=O)(O)O
[1]
  MIC: 0.5 µg/mL
[2]
  MIC: 1 µg/mL

## Cn1c(N)c(CCCCCN)c[n+]1CC1=C(C(=O)[O-])N2C(=O)[C@@H](NC(=O)/C(=N\OC(C)(C)C(=O)O)c3nsc(N)n3)[C@H]2SC1
[1]
  MIC: 1 µg/mL (≈ 1.54 µM)
[2]
  MIC: 2 µg/mL (≈ 3.07 µM)

## CC(C)(O/N=C(\C(=O)N[C@@H]1C(=O)N2C(C(=O)[O-])=C(C[n+]3ccccc3)CS[C@H]12)c1csc(N)n1)C(=O)O [CEFTAZIDIME]
[3]
  MIC: 128 µg/mL (≈ 234 µM)

## CC(C)(O/N=C(\C(=O)N[C@@H]1C(=O)N2C(C(=O)[O-])=C(C[n+]3ccc(N)n3CCO)CS[C@H]12)c1nsc(N)n1)C(=O)O.Cl
[1]
  MIC: 4 µg/mL
[2]
  MIC: 0.5 µg/mL
[3]
  MIC: 16 µg/mL

## Cn1c(N)c(CCCCN)c[n+]1CC1=C(C(=O)[O-])N2C(=O)[C@@H](NC(=O)/C(=N\OC(C)(C)C(=O)O)c3nsc(N)n3)[C@H]2SC1
[1]
  MIC: 0.5 µg/mL (≈ 0.785 µM)
[2]
  MIC: 1 µg/mL (≈ 1.57 µM)
